{"source": "patent US20220290103A1", "about": "“METHODS AND COMPOSITIONS USING AUXOTROPHIC REGULATABLE CELLS” (AUXOLYTIC LTD, priority 2019, published 2022)", "key": {"[1]": {"tested_on": "K562 cells with wild-type UMPS", "experiment": "K562 xenograft model, bioluminescence imaging", "type": "in vivo, NSG mice", "settings": "UTA supplemented food (same with normal food)", "excerpt": "(§1) For the K562 xenograft assay, 6 to 12 weeks old male NOD SCID gamma mouse (NSG) mice were transplanted with 1×10^6 K562 cells resuspended in […]® protein mixture (Corning, Inc.) 1:1 diluted with PBS under anesthesia. All animals were kept and handled according to institutional guidelines and the experimental protocol was approved by Stanford University's Administrative Panel on Laboratory Animal Care.\n(§2) The previously engineered UMPSK^KO/KO K562 cell line expressing firefly luciferase (FLuc) was used in a xenograft model in NSG mice. […] Cas9 RNP is targeted to exon 1 of the HBB locus with a guide RNA and a DNA donor template transduced by rAAV6 which carries a FLuc-2A-GFP-polyA cassette under control of the SFFV promoter. FACS analysis was performed four days after targeting of K562 cells to evaluate GFP expression before sorting of the GFP+ population. In a control group administered the AAV only, 1.61% of the cells were GFP+, and […]. […]\n(§3) UMPSK^KO/KO K562 cells or control cells were transplanted subcutaneously and observed weekly with bioluminescence imaging. Luminescence imaging of K562 cells was performed 5 minutes after intraperitoneal (ip) injection of 125 mg/kg D-Luciferin (PerkinElmer) on an IVIS Spectrum imaging system (PerkinElmer). […]"}, "[2]": {"tested_on": "UMPS^KO/KO K562 cells", "experiment": "K562 xenograft model, bioluminescence imaging", "type": "in vivo, NSG mice", "settings": "mice fed with 8% UTA", "excerpt": "as §1, §2, §3"}, "[3]": {"settings": "cited from earlier work"}}, "data": [{"compound": "CC(=O)OC[C@H]1O[C@@H](n2ccc(=O)[nH]c2=O)[C@H](OC(C)=O)[C@@H]1OC(C)=O", "note": "[UTA, uridine triacetate]", "values": [{"measurement": "Tumor burden of UMPS wild-type K562 cells", "setting": "[1]", "value": "increase in tumor burden"}, {"measurement": "Luminescence of UMPS^KO/KO K562-derived tumors", "setting": "[2]", "value": "increased"}, {"measurement": "Increase of uridine serum levels", "setting": "[3]; humans and mouse models, administration as prodrug", "value": "greater than 10 fold"}, {"measurement": "Tolerability", "setting": "[3]; mice, food enriched with 8% (w/w) UTA", "value": "well tolerated"}]}]}
